Assay results published in patent US9777020B2, “Furo-3-carboxamide derivatives and methods of use” (AbbVie Inc., priority 2014, dated 2017).

Target: TrkA (Homo sapiens (Human), UniProt P04629)
Experiment: TrkA kinase HTRF enzyme inhibition assay
Type: biochemical
Conditions: TrkA pre-incubated with 200 μM ATP
Summary of the method: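 HTRF ratio read-out of biotin-peptide (125 nM) phosphorylation, 1 h reaction after TrkA (2-10 nM) auto-activation with ATP (200 μM) for 20 min and 10 min compound pre-incubation in 50 mM HEPES pH 7.4 with MgCl2/MnCl2. Percent inhibition from initial rates in duplicate, fitted to single-site equation for IC50.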

Sequence of TrkA (P04629 33-796): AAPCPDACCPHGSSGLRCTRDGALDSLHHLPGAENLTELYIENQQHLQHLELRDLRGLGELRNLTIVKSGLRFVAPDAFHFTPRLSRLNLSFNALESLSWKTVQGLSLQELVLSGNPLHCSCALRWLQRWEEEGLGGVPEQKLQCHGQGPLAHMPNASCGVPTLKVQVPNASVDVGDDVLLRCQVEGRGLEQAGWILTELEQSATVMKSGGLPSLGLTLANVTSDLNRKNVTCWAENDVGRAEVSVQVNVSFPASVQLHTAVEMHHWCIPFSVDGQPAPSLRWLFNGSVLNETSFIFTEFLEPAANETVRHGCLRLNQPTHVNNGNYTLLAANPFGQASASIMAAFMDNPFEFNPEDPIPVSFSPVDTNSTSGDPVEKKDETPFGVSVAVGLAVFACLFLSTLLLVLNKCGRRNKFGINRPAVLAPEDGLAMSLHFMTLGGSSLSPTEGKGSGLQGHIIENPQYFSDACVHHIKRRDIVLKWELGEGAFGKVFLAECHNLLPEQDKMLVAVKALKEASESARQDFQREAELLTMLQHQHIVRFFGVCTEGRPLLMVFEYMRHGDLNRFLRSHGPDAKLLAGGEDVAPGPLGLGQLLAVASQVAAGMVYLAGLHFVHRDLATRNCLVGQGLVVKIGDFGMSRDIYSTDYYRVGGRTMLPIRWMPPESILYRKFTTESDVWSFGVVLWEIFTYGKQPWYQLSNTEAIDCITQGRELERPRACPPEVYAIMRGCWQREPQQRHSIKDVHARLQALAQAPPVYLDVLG

Row | SMILES | IC50 [µM]
1 | CCOc1nc(CO)ccc1NC(=O)c1coc2c1C(=O)NC(C)(C)C2 [Example 144, N-[2-ethoxy-6-(hydroxymethyl)pyridin-3-yl]-6,6-dimethyl-4-oxo-4,5,6,7-tetrahydrofuro[3,2-c]pyridine-3-carboxamide] | 0.0492
2 | CCOc1nc(C(=O)O)ccc1NC(=O)c1coc2c1C(=O)N(CCOC)C(C)(C)C2 [Example 145, 6-ethoxy-5-({[5-(2-methoxyethyl)-6,6-dimethyl-4-oxo-4,5,6,7-tetrahydrofuro[3,2-c]pyridin-3-yl]carbonyl}amino)pyridine-2-carboxylic acid] | 0.0079
3 | Cn1ncc2cc(NC(=O)c3coc4c3C(=O)CC(C)(C)C4)ccc21 [Example 146, 6,6-dimethyl-N-(1-methyl-1H-indazol-5-yl)-4-oxo-4,5,6,7-tetrahydro-1-benzofuran-3-carboxamide] | 0.0341
4 | CC1(C)CC(=O)c2c(C(=O)Nc3ccc(N4CCNCC4)nc3)coc2C1 [Example 149, 6,6-dimethyl-4-oxo-N-[6-(piperazin-1-yl)pyridin-3-yl]-4,5,6,7-tetrahydro-1-benzofuran-3-carboxamide] | 0.135
5 | Cn1cc2cc(NC(=O)c3coc4c3C(=O)CC3(CCC3)C4)ccc2n1 [Example 150, N-(2-methyl-2H-indazol-5-yl)-4-oxo-4,7-dihydro-5H-spiro[1-benzofuran-6,1′-cyclobutane]-3-carboxamide] | 0.0432
6 | CC1(C)CC(=O)c2c(C(=O)Nc3ccc4nn(CCO)cc4c3)coc2C1 [Example 153, N-[2-(2-hydroxyethyl)-2H-indazol-5-yl]-6,6-dimethyl-4-oxo-4,5,6,7-tetrahydro-1-benzofuran-3-carboxamide] | 0.0456
7 | CC1(C)CC(=O)c2c(C(=O)Nc3ccc4[nH]c(CO)nc4c3)coc2C1 [Example 154, N-[2-(hydroxymethyl)-1H-benzimidazol-5-yl]-6,6-dimethyl-4-oxo-4,5,6,7-tetrahydro-1-benzofuran-3-carboxamide] | 0.074
8 | CC(=O)N1CCN(c2ccc(NC(=O)c3coc4c3C(=O)CC(C)(C)C4)nc2)CC1 [Example 156, N-[5-(4-acetylpiperazin-1-yl)pyridin-2-yl]-6,6-dimethyl-4-oxo-4,5,6,7-tetrahydro-1-benzofuran-3-carboxamide] | 0.0467
9 | COc1cc(N2CCNCC2)ccc1NC(=O)c1coc2c1C(=O)CC(C)(C)C2 [Example 157, N-[2-methoxy-4-(piperazin-1-yl)phenyl]-6,6-dimethyl-4-oxo-4,5,6,7-tetrahydro-1-benzofuran-3-carboxamide] | 0.0064
10 | Cn1cc2cc(NC(=O)c3coc4c3C(=O)CC3(CC3)C4)ccc2n1 [Example 159, N-(2-methyl-2H-indazol-5-yl)-4-oxo-4,7-dihydro-5H-spiro[1-benzofuran-6,1′-cyclopropane]-3-carboxamide] | 0.0103
11 | Cn1cc2cc(NC(=O)c3coc4c3C(=O)CN(S(C)(=O)=O)C4)ccc2n1 [Example 161, N-(2-methyl-2H-indazol-5-yl)-6-(methylsulfonyl)-4-oxo-4,5,6,7-tetrahydrofuro[2,3-c]pyridine-3-carboxamide] | 0.872
12 | Cn1cc2cc(NC(=O)c3coc4c3C(=O)CC(C)(CO)C4)ccc2n1 (stereo not shown) [Example 164, 6-(hydroxymethyl)-6-methyl-N-(2-methyl-2H-indazol-5-yl)-4-oxo-4,5,6,7-tetrahydro-1-benzofuran-3-carboxamide] | 0.0219
13 | COCC1(C)CC(=O)c2c(C(=O)Nc3ccc(N4CCNCC4)cc3OC)coc2C1 (stereo not shown) [Example 166, 6-(methoxymethyl)-N-[2-methoxy-4-(piperazin-1-yl)phenyl]-6-methyl-4-oxo-4,5,6,7-tetrahydro-1-benzofuran-3-carboxamide] | 0.104

The remaining lines, values ahead:

Row | IC50 [µM] | SMILES
14 | 0.0246 | CCOc1nc(CCO)ccc1NC(=O)c1coc2c1C(=O)NC(C)(C)C2 [Example 143, N-[2-ethoxy-6-(2-hydroxyethyl)pyridin-3-yl]-6,6-dimethyl-4-oxo-4,5,6,7-tetrahydrofuro[3,2-c]pyridine-3-carboxamide]
15 | 0.0324 | CC(=O)N1CCN(c2ccc(NC(=O)c3coc4c3C(=O)CC(C)(C)C4)cc2)CC1 [Example 148, N-[4-(4-acetylpiperazin-1-yl)phenyl]-6,6-dimethyl-4-oxo-4,5,6,7-tetrahydro-1-benzofuran-3-carboxamide]
16 | 0.0634 | CC1(C)CC(=O)c2c(C(=O)Nc3ccc(N4CCNCC4)cn3)coc2C1 [Example 151, 6,6-dimethyl-4-oxo-N-[5-(piperazin-1-yl)pyridin-2-yl]-4,5,6,7-tetrahydro-1-benzofuran-3-carboxamide]
17 | 0.0358 | CC1(C)CC(=O)c2c(C(=O)Nc3ccc(N4CCN(S(C)(=O)=O)CC4)cc3)coc2C1 [Example 152, 6,6-dimethyl-N-{4-[4-(methylsulfonyl)piperazin-1-yl]phenyl}-4-oxo-4,5,6,7-tetrahydro-1-benzofuran-3-carboxamide]
18 | 0.0548 | CC1(C)CC(=O)c2c(C(=O)Nc3ccc(N4CCN(S(C)(=O)=O)CC4)cn3)coc2C1 [Example 155, 6,6-dimethyl-N-{5-[4-(methylsulfonyl)piperazin-1-yl]pyridin-2-yl}-4-oxo-4,5,6,7-tetrahydro-1-benzofuran-3-carboxamide]
19 | 0.0042 | COc1cc(N2CCN(C(C)=O)CC2)ccc1NC(=O)c1coc2c1C(=O)CC(C)(C)C2 [Example 158, N-[4-(4-acetylpiperazin-1-yl)-2-methoxyphenyl]-6,6-dimethyl-4-oxo-4,5,6,7-tetrahydro-1-benzofuran-3-carboxamide]
20 | 0.258 | Cn1cc2cc(NC(=O)c3coc4c3C(=O)CNC4)ccc2n1 [Example 160, N-(2-methyl-2H-indazol-5-yl)-4-oxo-4,5,6,7-tetrahydrofuro[2,3-c]pyridine-3-carboxamide]
21 | 0.058 | Cn1cc2cc(NC(=O)c3coc4c3C(=O)CC(C)(C(N)=O)C4)ccc2n1 (stereo not shown) [Example 162, 6-methyl-N^3-(2-methyl-2H-indazol-5-yl)-4-oxo-4,5,6,7-tetrahydro-1-benzofuran-3,6-dicarboxamide]
22 | 0.156 | COC(=O)C1(C)CC(=O)c2c(C(=O)Nc3ccc4nn(C)cc4c3)coc2C1 (stereo not shown) [Example 163, methyl 6-methyl-3-[(2-methyl-2H-indazol-5-yl)carbamoyl]-4-oxo-4,5,6,7-tetrahydro-1-benzofuran-6-carboxylate]
23 | 0.0133 | COc1cc(N2CCN(C(=O)OC(C)(C)C)CC2)ccc1NC(=O)c1coc2c1C(=O)CC(C)(CO)C2 (stereo not shown) [Example 165, tert-butyl 4-[4-({[6-(hydroxymethyl)-6-methyl-4-oxo-4,5,6,7-tetrahydro-1-benzofuran-3-yl]carbonyl}amino)-3-methoxyphenyl]piperazine-1-carboxylate]
24 | 0.0353 | Cn1cc2cc(NC(=O)c3coc4c3C(=O)C(C)(CO)CC4)ccc2n1 (stereo not shown) [Example 167, 5-(hydroxymethyl)-5-methyl-N-(2-methyl-2H-indazol-5-yl)-4-oxo-4,5,6,7-tetrahydro-1-benzofuran-3-carboxamide]
25 | 0.0596 | COc1cc(N2CCN(C(C)=O)CC2)ccc1NC(=O)c1coc2c1C(=O)C(C)(CN)CC2 (stereo not shown) [Example 169, N-[4-(4-acetylpiperazin-1-yl)-2-methoxyphenyl]-5-(aminomethyl)-5-methyl-4-oxo-4,5,6,7-tetrahydro-1-benzofuran-3-carboxamide]
